Tests used:
TubE = target: T1, TubE (Streptomyces tubercidicus, UniProt A0A384YVR8); assay: HPLC and LC-MS product detection; product NMR; format: biochemical; details: 1 mM CDG, 2 mM PRPP, 5 mM MgCl2, 1 mM DTT, 100 mM PBS pH 7.5, 30 °C, 8 h
T1 construct: gene Stube_10250; full-length, 194 aa, His6-tagged (pET28a NdeI-EcoRI), E. coli Rosetta (DE3)/pLysS
T1 sequence (A0A384YVR8 1-194): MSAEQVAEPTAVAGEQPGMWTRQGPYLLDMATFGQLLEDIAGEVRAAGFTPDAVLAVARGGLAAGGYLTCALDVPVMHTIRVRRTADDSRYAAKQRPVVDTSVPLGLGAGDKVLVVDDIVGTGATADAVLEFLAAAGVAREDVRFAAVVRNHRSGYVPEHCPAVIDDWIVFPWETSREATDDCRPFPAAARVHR

TubD = target: T2, TubD (Streptomyces tubercidicus, UniProt A0A384YXG2); assay: LC-MS detection of IMP; format: biochemical; details: 1 mM NADPH, 1 mM GMP, 50 mM KCl, 1 mM DTT, 2 mM EDTA, 100 mM Tris-HCl pH 7.5, 30 °C, 4 h
T2 construct: gene Stube_10260; full-length, 385 aa, His6-tagged (pET28a NdeI-EcoRI), E. coli Rosetta (DE3)/pLysS
T2 sequence (A0A384YXG2 1-385): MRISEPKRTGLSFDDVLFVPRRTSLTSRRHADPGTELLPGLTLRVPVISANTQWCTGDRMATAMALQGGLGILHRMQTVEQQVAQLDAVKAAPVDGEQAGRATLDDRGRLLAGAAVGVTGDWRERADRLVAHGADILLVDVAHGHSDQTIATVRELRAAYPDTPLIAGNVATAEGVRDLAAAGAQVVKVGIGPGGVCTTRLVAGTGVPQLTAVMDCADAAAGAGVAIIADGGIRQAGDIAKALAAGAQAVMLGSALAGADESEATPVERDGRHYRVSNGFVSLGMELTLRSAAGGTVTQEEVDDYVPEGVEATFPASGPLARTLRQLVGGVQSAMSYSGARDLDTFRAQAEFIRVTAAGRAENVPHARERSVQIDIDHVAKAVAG

Compound | HPLC and LC-MS product detection; product NMR (TubE) | LC-MS detection of IMP (TubD)
Nc1nc2[nH]cc(C(=O)O)c2c(=O)[nH]1 [CDG] | all of the data demonstrate that TubE functions as a CDG-specific phosphoribosyltransferase | 
NC(=O)C1=CN([C@@H]2O[C@H](COP(=O)(O)OP(=O)(O)OC[C@H]3O[C@@H](n4cnc5c(N)ncnc54)[C@H](OP(=O)(O)O)[C@@H]3O)[C@@H](O)[C@H]2O)C=CC1 [NADPH] |  | this cofactor could not replace NADPH to supply reducing equivalents for the TubD reaction
O=P(O)(O)OC[C@H]1O[C@H](OP(=O)(O)OP(=O)(O)O)[C@H](O)[C@@H]1O [PRPP] | HPLC profile of the TubE reaction using PRPP and CDG as substrates | 
